Tests used:
Z138 cells = assay: MTT cell proliferation assay, Z138 cells; format: cell-based, human; settings: Homo sapiens, Z-138; Z138 cells (mature B-cell acute lymphoblastic leukemia cell line); approximately 64-72 hours incubation
Description: (§1) The MTT cell proliferation assay was used to study the cytotoxic properties of the compounds. The assay was performed according to the method described by Roche Molecular Biochemicals, with minor modifications. The assay is based on the cleavage of the tetrazolium salt, MTT, in the presence of an electron-coupling reagent. The water-insoluble formazan salt produced must be solubilized in an additional step. Cells grown in a 96-well tissue culture plate were incubated with the MTT solution for approximately 4 hours. After this incubation period, a water-insoluble formazan dye formed. After solubilization, the formazan dye was quantitated using a scanning multi-well spectrophotometer (ELISA reader). […] The cells were seeded at 5,000-10,000 cells in each well of 96-well plate in 100 μL of fresh culture medium and were allowed to attach overnight. The stock solutions of the compounds were diluted in 100 μL cell culture medium to obtain eight concentrations of each test compound, ranging from 1 nM to 30 μM. […] All optical densities were measured at 490 nm using a Vmax Kinetic Microplate Reader (Molecular Devices). In most cases, the assay was performed in duplicate and the results were presented as a mean percent inhibition to the negative control±SE. The following formula was used to calculate the percent of inhibition: Inhibition (%)=(1−(ODo/OD))×100.
(§2) The compounds were tested against MS751, Z138 and 3T3 cells. The MS751 cell line is derived from a metastasis to lymph node of human cervix from a patient diagnosed with squameous cell carcinoma of the cervix. The Z138 cell line is a mature B-cell acute lymphoblastic leukemia cell line derived from a patient with chronic lumphocytic leukemia. 3T3 cells are standard fibroblast cells; they were originally isolated from Swiss mouse embryo tissue.

MS751 cells = assay: MTT cell proliferation assay, MS751 cells; format: cell-based; settings: MS751 cells (human cervix squamous cell carcinoma, lymph node metastasis); approximately 64-72 hours incubation
Description: as §1, §2

3T3 cells = assay: MTT cell proliferation assay, 3T3 cells; format: cell-based; settings: NIH3T3; 3T3 cells (standard fibroblast cells, Swiss mouse embryo); approximately 64-72 hours incubation
Description: as §1, §2

SMILES | IC50 (Z138 cells) | IC50 (MS751 cells) | IC50 (3T3 cells)
N#C/N=C(\NCc1cc2cc(-c3ccc(C(=O)N4CCC(F)(F)CC4)cc3)cc(-c3ccc(F)cc3)c2o1)Nc1ccc(N)nc1 [Compound 118, (E)-1-(6-aminopyridin-3-yl)-2-cyano-3-((5-(4-(4,4-difluoropiperidine-1-carbonyl)phenyl)-7-(4-fluorophenyl)benzofuran-2-yl)methyl)guanidine] | > 10 µM | > 10 µM | > 10 µM
O=C(NCc1cc2cc(-c3ccc(C(=O)N4CCC(F)(F)CC4)cc3)cc(-c3ccc(F)cc3F)c2o1)N1Cc2ccncc2C1 [Compound 108, N-((7-(2,4-difluorophenyl)-5-(4-(4,4-difluoropiperidine-1-carbonyl)phenyl)benzofuran-2-yl)methyl)-1H-pyrrolo[3,4-c]pyridine-2(3H)-carboxamide] | < 0.1 µM | < 0.1 µM | > 10 µM
N#C/N=C(/NCc1ccc(N)nc1)NCc1cc2cc(-c3ccc(C(=O)N4CCC(F)(F)CC4)cc3)cc(-c3ccc(F)cc3)c2o1 [Compound 119, (Z)-1-((6-aminopyridin-3-yl)methyl)-2-cyano-3-((5-(4-(4,4-difluoropiperidine-1-carbonyl)phenyl)-7-(4-fluorophenyl)benzofuran-2-yl)methyl)guanidine] | 0.1 to 5 µM | 0.1 to 5 µM | > 10 µM
Nc1ccc(CNC(=O)NCc2cc3cc(-c4ccc(C(=O)N5CCC(F)(F)CC5)cc4)cc(-c4ccc(F)cc4)c3o2)cn1 [Compound 100, 1-((6-aminopyridin-3-yl)methyl)-3-((5-(4-(4,4-difluoropiperidine-1-carbonyl)phenyl)-7-(4-fluorophenyl)benzofuran-2-yl)methyl)urea] | < 0.1 µM | < 0.1 µM | 0.1 to 5 µM
Nc1ccc(NC(=O)NCc2cc3cc(-c4ccc(C(=O)N5CCC(F)(F)CC5)cc4)cc(-c4ccc(F)cc4)c3o2)cn1 [Compound 101, 1-(6-aminopyridin-3-yl)-3-((5-(4-(4,4-difluoropiperidine-1-carbonyl)phenyl)-7-(4-fluorophenyl)benzofuran-2-yl)methyl)urea] | 0.1 to 5 µM | 0.1 to 5 µM | > 10 µM

Source: patent publication US10858347B2, “Multicyclic compounds and uses thereof” (Karyopharm Therapeutics Inc., priority 2015, dated 2020)
